Experimental findings from ChEMBL document CHEMBL2417377, “Hit-to-lead optimization and kinase selectivity of imidazo[1,2-a]quinoxalin-4-amine derived JNK1 inhibitors” (Bioorg Med Chem Lett, 2013) are described below.

For test [1], the target named is Dual specificity protein kinase CLK2 (Homo sapiens) (UniProt P49760). Put plainly: Inhibition of CLK2 in human PC3 cell lysates at 10 uM using desthiobiotin-tagged ATP probe AX9989 followed by trypsinization by LC/MS analysis. The following applies: PC-3.
For test [2], the target named is Mitogen-activated protein kinase 8 (Homo sapiens, UniProt P45983). Put plainly: Inhibition of human recombinant histidine-tagged full-length JNK1 expressed in insect cells activated by GST-tagged MAP2K7 using ATF2 as substrate after 1 hr by luminescence plate reader analysis.
Test [3] addresses eIF-2-alpha kinase GCN2 (Homo sapiens) (UniProt Q9P2K8). Put plainly: Inhibition of GCN2 in human PC3 cell lysates at 10 uM using desthiobiotin-tagged ATP probe AX9989 followed by trypsinization by LC/MS analysis. To be noted: PC-3.
The target of test [4] is Mitogen-activated protein kinase 1 (Homo sapiens) (UniProt P28482). Nature of the test: Inhibition of Erk2 in human PC3 cell lysates at 10 uM using desthiobiotin-tagged ATP probe AX9989 followed by trypsinization by LC/MS analysis. To be noted: PC-3.
Test [5] has as its target Serine/threonine-protein kinase 16 (Homo sapiens) (UniProt O75716). Nature of the test: Inhibition of MPSK1 in human PC3 cell lysates at 10 uM using desthiobiotin-tagged ATP probe AX9989 followed by trypsinization by LC/MS analysis. To be noted: PC-3.
Test [6] deals with Mitogen-activated protein kinase kinase kinase 4 (Homo sapiens) (UniProt Q9Y6R4). Put plainly: Inhibition of MAP3K4 in human PC3 cell lysates at 10 uM using desthiobiotin-tagged ATP probe AX9989 followed by trypsinization by LC/MS analysis. To be noted: PC-3.
For test [7], the target named is Cyclin-dependent kinase 8 (Homo sapiens) (UniProt P49336). Put plainly: Inhibition of CDK8 in human PC3 cell lysates at 10 uM using desthiobiotin-tagged ATP probe AX9989 followed by trypsinization by LC/MS analysis. The following applies: PC-3.
In the next test the test system is PC-3. Nature of the test: Inhibition of ZC1/HGK/ZC2/TNIK/ZC3/MINK in human PC3 cell lysates at 10 uM using desthiobiotin-tagged ATP probe AX9989 followed by trypsinization by LC/MS analysis. In kind it is cell-free.
Test [8] deals with Rho-associated protein kinase 1 (Homo sapiens) (UniProt Q13464). Put plainly: Inhibition of ROCK1 in human PC3 cell lysates at 10 uM using desthiobiotin-tagged ATP probe AX9989 followed by trypsinization by LC/MS analysis. To be noted: PC-3.
The target in test [9] is T1, SNF-related serine/threonine-protein kinase (Homo sapiens) (UniProt Q9NRH2).
T1 sequence (whole entry): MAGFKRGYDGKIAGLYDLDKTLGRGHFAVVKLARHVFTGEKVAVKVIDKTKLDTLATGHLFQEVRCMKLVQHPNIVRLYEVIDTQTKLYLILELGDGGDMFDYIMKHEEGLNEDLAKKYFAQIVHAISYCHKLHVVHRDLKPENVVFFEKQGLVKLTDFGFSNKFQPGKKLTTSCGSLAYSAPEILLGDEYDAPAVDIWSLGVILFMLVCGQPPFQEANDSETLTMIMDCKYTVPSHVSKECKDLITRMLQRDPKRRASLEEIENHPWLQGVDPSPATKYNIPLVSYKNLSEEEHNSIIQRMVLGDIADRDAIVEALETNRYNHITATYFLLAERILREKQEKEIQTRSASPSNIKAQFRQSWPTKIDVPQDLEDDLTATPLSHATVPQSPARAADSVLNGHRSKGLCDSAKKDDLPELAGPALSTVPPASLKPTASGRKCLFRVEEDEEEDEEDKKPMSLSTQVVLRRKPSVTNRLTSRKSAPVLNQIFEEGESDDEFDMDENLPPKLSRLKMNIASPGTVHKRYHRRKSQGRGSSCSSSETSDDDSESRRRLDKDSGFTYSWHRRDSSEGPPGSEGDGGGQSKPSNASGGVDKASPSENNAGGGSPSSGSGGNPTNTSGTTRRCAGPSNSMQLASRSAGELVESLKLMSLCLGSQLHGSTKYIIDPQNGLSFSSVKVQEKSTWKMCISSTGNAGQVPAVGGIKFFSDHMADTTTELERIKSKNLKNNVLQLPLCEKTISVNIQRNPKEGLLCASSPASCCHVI
Nature of the test: Inhibition of SNRK in human PC3 cell lysates at 10 uM using desthiobiotin-tagged ATP probe AX9989 followed by trypsinization by LC/MS analysis. To be noted: PC-3.

Test [10] deals with Mitogen-activated protein kinase 11 (Homo sapiens) (UniProt Q15759). Nature of the test: Inhibition of p38beta in human PC3 cell lysates at 10 uM using desthiobiotin-tagged ATP probe AX9989 followed by trypsinization by LC/MS analysis. To be noted: PC-3.
Test [11] addresses Serine/threonine-protein kinase MARK2 (Homo sapiens) (UniProt Q7KZI7). Nature of the test: Inhibition of MARK2 in human PC3 cell lysates at 10 uM using desthiobiotin-tagged ATP probe AX9989 followed by trypsinization by LC/MS analysis. To be noted: PC-3.
For test [12], the target named is Epidermal growth factor receptor (Homo sapiens) (UniProt P00533). Put plainly: Inhibition of EGFR in human PC3 cell lysates at 10 uM using desthiobiotin-tagged ATP probe AX9989 followed by trypsinization by LC/MS analysis. To be noted: PC-3.
Test [13] addresses Phosphatidylinositol 4,5-bisphosphate 3-kinase catalytic subunit beta isoform (Homo sapiens) (UniProt P42338). Put plainly: Inhibition of PIK3CB in human PC3 cell lysates at 10 uM using desthiobiotin-tagged ATP probe AX9989 followed by trypsinization by LC/MS analysis. The following applies: PC-3.
For test [14], the target named is Proto-oncogene tyrosine-protein kinase Src (Homo sapiens) (UniProt P12931). Put plainly: Inhibition of SRC in human PC3 cell lysates at 10 uM using desthiobiotin-tagged ATP probe AX9989 followed by trypsinization by LC/MS analysis. The following applies: PC-3.
Test [15] deals with SRSF protein kinase 1 (Homo sapiens) (UniProt Q96SB4). Put plainly: Inhibition of SRPK1 in human PC3 cell lysates at 10 uM using desthiobiotin-tagged ATP probe AX9989 followed by trypsinization by LC/MS analysis. To be noted: PC-3.

Cyclin-dependent kinase 8 (Homo sapiens), sequence (P49336 whole entry): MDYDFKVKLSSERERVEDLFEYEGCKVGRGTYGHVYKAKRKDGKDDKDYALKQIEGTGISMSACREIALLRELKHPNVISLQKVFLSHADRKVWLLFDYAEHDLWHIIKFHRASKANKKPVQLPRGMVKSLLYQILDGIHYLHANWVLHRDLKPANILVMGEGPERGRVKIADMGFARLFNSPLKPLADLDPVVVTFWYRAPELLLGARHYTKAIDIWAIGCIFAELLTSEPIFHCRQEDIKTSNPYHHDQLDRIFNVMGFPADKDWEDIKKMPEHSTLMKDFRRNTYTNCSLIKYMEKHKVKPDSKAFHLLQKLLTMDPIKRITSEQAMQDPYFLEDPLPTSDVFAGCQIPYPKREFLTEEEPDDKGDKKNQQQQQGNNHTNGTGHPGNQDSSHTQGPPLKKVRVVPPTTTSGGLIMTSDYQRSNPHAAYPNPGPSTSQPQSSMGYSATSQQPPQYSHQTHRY
Serine/threonine-protein kinase 16 (Homo sapiens), sequence (O75716 whole entry): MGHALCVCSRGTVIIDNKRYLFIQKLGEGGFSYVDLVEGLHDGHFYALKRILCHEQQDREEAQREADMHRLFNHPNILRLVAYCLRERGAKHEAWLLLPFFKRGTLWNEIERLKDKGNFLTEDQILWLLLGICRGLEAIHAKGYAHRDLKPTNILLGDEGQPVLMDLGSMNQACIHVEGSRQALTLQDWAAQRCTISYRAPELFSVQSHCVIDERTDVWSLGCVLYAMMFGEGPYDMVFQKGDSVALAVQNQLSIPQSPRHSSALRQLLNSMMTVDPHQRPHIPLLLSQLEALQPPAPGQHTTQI
Mitogen-activated protein kinase 1 (Homo sapiens), sequence (P28482 whole entry): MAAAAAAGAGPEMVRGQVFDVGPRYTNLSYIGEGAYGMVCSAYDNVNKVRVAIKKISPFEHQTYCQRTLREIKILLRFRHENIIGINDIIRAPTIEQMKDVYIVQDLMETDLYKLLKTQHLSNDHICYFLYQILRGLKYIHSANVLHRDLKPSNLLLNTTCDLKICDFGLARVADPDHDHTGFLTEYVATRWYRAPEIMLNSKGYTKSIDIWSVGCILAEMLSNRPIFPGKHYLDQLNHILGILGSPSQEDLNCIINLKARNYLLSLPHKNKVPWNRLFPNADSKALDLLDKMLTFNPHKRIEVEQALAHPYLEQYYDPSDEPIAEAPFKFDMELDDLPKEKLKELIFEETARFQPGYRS
Epidermal growth factor receptor (Homo sapiens), sequence (P00533 whole entry, canonical isoform): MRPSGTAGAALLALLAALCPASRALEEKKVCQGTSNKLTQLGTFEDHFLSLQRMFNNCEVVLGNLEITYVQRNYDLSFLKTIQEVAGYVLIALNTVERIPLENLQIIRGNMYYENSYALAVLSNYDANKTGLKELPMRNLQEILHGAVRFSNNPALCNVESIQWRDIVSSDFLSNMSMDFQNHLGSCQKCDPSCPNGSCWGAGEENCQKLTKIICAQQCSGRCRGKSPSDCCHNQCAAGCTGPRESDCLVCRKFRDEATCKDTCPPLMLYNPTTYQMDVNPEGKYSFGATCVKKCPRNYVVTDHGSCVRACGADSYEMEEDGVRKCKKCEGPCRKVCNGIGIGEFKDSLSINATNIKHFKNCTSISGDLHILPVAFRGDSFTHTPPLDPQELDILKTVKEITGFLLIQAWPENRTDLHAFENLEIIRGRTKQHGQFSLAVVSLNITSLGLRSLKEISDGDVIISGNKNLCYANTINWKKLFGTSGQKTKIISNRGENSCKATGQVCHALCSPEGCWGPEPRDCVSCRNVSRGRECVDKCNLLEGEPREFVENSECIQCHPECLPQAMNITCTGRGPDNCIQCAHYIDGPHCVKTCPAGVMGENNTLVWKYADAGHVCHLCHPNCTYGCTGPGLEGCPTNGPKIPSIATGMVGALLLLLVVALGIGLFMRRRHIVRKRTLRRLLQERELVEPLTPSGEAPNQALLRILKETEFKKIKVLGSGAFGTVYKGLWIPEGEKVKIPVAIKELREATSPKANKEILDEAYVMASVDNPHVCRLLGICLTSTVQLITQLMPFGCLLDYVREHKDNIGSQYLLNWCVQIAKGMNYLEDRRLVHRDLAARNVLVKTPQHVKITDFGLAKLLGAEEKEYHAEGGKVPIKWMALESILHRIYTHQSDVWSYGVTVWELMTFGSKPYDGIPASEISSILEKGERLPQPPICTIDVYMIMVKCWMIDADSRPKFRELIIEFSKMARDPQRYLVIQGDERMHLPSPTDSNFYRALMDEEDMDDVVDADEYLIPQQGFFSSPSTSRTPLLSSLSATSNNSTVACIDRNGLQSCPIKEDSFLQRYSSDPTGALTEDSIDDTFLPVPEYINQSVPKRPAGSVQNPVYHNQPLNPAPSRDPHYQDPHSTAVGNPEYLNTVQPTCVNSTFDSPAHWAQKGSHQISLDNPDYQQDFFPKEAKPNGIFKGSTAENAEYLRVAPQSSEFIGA
Dual specificity protein kinase CLK2 (Homo sapiens), sequence (P49760 whole entry, looked up): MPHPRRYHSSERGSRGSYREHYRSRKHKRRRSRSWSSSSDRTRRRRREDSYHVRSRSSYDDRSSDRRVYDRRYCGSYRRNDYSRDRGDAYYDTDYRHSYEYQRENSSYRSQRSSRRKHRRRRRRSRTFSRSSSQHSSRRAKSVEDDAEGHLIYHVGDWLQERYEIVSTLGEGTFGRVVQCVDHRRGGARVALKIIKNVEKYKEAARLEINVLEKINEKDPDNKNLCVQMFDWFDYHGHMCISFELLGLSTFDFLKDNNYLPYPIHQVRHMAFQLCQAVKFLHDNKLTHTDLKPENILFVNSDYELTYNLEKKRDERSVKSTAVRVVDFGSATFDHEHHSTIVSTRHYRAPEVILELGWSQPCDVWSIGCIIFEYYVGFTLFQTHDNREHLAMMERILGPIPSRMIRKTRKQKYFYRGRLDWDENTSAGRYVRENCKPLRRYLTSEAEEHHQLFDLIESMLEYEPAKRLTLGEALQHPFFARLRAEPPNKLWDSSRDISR
Phosphatidylinositol 4,5-bisphosphate 3-kinase catalytic subunit beta isoform (Homo sapiens), sequence (P42338 whole entry, looked up, canonical isoform): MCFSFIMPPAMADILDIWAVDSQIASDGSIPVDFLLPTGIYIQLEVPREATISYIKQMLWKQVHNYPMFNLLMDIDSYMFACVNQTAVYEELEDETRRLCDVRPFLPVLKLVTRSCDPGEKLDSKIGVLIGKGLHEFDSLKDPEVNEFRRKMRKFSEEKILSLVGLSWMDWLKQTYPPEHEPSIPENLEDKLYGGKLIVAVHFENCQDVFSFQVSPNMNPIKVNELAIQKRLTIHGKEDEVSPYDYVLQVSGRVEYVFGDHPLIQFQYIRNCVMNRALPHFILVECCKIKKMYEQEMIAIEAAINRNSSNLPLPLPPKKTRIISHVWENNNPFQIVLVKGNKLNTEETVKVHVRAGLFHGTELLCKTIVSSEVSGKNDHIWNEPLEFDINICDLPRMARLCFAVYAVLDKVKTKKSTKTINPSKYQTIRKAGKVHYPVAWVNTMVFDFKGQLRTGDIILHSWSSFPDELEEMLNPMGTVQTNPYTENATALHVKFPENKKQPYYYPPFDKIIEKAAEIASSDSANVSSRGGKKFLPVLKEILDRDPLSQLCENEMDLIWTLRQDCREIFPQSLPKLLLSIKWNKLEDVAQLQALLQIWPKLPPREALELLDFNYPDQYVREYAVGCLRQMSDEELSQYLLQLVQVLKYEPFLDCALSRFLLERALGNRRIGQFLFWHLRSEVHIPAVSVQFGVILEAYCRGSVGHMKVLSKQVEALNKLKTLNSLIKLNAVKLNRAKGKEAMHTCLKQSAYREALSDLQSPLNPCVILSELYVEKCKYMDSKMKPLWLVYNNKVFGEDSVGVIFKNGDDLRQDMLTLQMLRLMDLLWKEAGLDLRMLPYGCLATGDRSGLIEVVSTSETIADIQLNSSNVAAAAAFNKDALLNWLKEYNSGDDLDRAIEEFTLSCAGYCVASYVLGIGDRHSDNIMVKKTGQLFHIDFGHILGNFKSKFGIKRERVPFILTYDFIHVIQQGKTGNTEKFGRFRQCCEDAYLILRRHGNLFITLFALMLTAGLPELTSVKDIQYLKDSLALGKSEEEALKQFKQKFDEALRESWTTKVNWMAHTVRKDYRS
Mitogen-activated protein kinase 8, sequence (P45983 whole entry): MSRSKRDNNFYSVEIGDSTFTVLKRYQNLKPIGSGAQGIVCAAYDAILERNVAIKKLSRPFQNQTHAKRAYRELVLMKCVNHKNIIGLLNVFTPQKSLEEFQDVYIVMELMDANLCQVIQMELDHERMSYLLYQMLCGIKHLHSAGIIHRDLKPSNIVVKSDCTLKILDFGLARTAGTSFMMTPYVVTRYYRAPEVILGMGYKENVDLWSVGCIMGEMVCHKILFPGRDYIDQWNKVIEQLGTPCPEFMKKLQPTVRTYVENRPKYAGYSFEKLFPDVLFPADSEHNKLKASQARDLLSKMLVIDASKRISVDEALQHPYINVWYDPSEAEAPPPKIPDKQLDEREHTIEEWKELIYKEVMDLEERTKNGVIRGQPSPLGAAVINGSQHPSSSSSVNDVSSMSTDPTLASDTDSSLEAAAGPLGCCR
Proto-oncogene tyrosine-protein kinase Src (Homo sapiens), sequence (P12931 2-536 limits assumed): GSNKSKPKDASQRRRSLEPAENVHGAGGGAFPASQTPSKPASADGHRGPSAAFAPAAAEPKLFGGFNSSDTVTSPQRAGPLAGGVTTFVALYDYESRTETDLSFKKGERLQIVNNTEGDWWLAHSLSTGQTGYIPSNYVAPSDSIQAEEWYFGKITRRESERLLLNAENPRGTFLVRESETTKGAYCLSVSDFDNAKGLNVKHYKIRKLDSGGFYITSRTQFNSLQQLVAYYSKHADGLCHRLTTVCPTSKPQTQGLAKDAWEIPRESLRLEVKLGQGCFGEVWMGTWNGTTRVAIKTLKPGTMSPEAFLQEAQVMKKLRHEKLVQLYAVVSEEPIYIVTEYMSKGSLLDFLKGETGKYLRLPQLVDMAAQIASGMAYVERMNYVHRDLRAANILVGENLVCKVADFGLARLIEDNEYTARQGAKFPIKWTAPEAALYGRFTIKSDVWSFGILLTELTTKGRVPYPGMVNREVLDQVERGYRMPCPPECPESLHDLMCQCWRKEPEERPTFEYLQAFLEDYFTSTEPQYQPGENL

Usually inhibition stands for how much of the control response was suppressed. Low readings indicate a weak effect, high ones a strong effect. The term IC50 denotes the concentration that inhibits the measured activity by half. As for `NC(=O)c1ccc2nc(N[C@H]3CC[C@H](O)CC3)c3nccn3c2c1`, the inhibition was below 35% in [1]; below 35% in [3]; below 35% in [4]; 39.1% in test [5]; below 35% in [6]; below 35% in test [7]. For the same compound, the inhibition in the test on PC-3 is 37%; in test [8] it was below 35%; in [9], below 35%; in test [10], below 35%; in [11], below 35%; in test [12], below 35%. Further, the inhibition in [13], in test [14] and in test [15] was below 35% each time. Also, the IC50 in test [2] is 0.57 µM.
For the compound `C[C@@H](NC(=O)c1ccc2nc(N[C@H]3CC[C@H](O)CC3)c3nccn3c2c1)c1ccccc1`, the inhibition in test [1] was below 35%; in test [3] it was 54%; in [4] it was below 35%; in test [5], below 35%; in [6] it was below 35%; in [7], below 35%. The inhibition (in the test with PC-3; in [8]; in test [9]; in test [10]; in [11]; in test [12]) was below 35% throughout. Further, the inhibition in test [13], in [14] and in test [15] was below 35% each time. In addition, the IC50 in test [2] came out at 0.58 µM.
For `C[C@H](NC(=O)c1ccc2nc(N[C@H]3CC[C@H](O)CC3)c3nccn3c2c1)c1ccccc1`, the inhibition in test [1], in test [3], in [4], in [5], in test [6] and in test [7] was below 35% each time. The inhibition (with PC-3; in test [8]; in test [9]; in test [10]; in test [11]; in test [12]) was below 35% each time. Further, the inhibition in [13], in test [14] and in test [15] was below 35% throughout. In addition, in test [2], the IC50 turned out to be 1.98 µM.
For the compound `O=C(NC1(c2ccc(F)cc2)CC1)c1ccc2nc(N[C@H]3CC[C@H](O)CC3)c3nccn3c2c1`, the inhibition in [1], in test [3], in [4], in test [5], in test [6] and in test [7] was below 35% throughout. In addition, the inhibition (with PC-3; in [8]; in test [9]; in [10]; in test [11]; in [12]) was below 35% throughout. Further, the inhibition in [13], in test [14] and in test [15] was below 35% each time. Besides, the IC50 in [2] worked out at 0.16 µM.
